Results taken from ChEMBL document CHEMBL5500384, “New synergistic benzoquinone scaffolds as inhibitors of mycobacterial cytochrome bc1 complex to treat multi-drug resistant tuberculosis” (Eur J Med Chem, 2024).
Calls of active or inactive are those of the source. The calls are words filed in the database; no cut-off is given here.

Experiments:
[1] = tested on: Mycolicibacterium smegmatis; experiment: Antibacterial activity against Mycobacterium smegmatis ATCC 14468 assessed as reduction in bacterial growth at 3 ug/ml measured every 6 hrs by spectrometry analysis; assay type: functional, organism-based; conditions: dose 3.0 µg/ml
[2] = tested on: Mycolicibacterium smegmatis; experiment: Antibacterial activity against Mycobacterium smegmatis ATCC 14468 assessed as log2 fold change in 24-methylenecholesterol metabolite level by mass spectrometry analysis; assay type: functional
[3] = Renal toxicity in Albino mouse assessed as change in renal corpuscles at 50 to 2000 mg/kg, po measured after 14 days; assay type: organism-based; conditions: in vivo, 336 h, dose 50-2000 mg/kg, time 14 day
[4] = Cytotoxicity against african green monkey Vero cells assessed as cell viability at 12.5 ug/ml by MTT assay; assay type: toxicity, cell-based; conditions: chlorocebus sabaeus, at 12.5 µg/mL, read-out: Activity
[5] = tested on: Mycolicibacterium smegmatis; experiment: Antibacterial activity against Mycobacterium smegmatis ATCC 14468 assessed as log2 fold change in N-Acetyl-l-glutamic acid metabolite level by mass spectrometry analysis; assay type: functional
[6] = Renal toxicity in Albino mouse assessed as structural absorbability abnormalities at 50 to 2000 mg/kg, po measured after 14 days; assay type: organism-based; conditions: in vivo, 336 h, dose 50-2000 mg/kg, time 14 day
[7] = tested on: Mycolicibacterium smegmatis; experiment: Antibacterial activity against Mycobacterium smegmatis ATCC 14468 assessed as log2 fold change in DppB expression at 3 ug/ml incubated for 12 hrs by mass spectrometric analysis; assay type: functional; conditions: dose 3 µg/ml
[8] = Cytotoxicity against african green monkey Vero cells assessed as cell viability at 25 ug/ml by MTT assay; assay type: toxicity, cell-based; conditions: chlorocebus sabaeus, at 25 µg/mL, read-out: Activity
[9] = Pulmonary toxicity in Albino mouse assessed as change in alveolar sacs at 50 to 2000 mg/kg, po measured after 14 days; assay type: organism-based; conditions: in vivo, 336 h, dose 50-2000 mg/kg, time 14 day
[10] = Acute toxicity in Albino mouse assessed as change in serum urea level at 50 to 2000 mg/kg, po measured after 14 days (reference value: 46 mg/dl); assay type: organism-based; conditions: in vivo, 336 h, dose 50-2000 mg/kg, time 14 day
[11] = Pulmonary toxicity in Albino mouse assessed as appearance of cilia at 50 to 2000 mg/kg, po measured after 14 days; assay type: organism-based; conditions: in vivo, 336 h, dose 50-2000 mg/kg, time 14 day
[12] = Hepatotoxicity in Albino mouse assessed as change in portal vein at 50 to 2000 mg/kg, po measured after 14 days; assay type: toxicity, organism-based; conditions: in vivo, 336 h, dose 50-2000 mg/kg, time 14 day
[13] = tested on: Mycolicibacterium smegmatis; experiment: Antibacterial activity against Mycobacterium smegmatis ATCC 14468 assessed as log2 fold change in cytochrome bd-type quinol oxidase, subunit 1 expression at 3 ug/ml incubated for 12 hrs by mass spectrometric analysis; assay type: functional; conditions: dose 3 µg/ml
[14] = tested on: Mycolicibacterium smegmatis; experiment: Antibacterial activity against Mycobacterium smegmatis ATCC 14468 assessed as log2 fold change in MscS expression at 3 ug/ml incubated for 12 hrs by mass spectrometric analysis; assay type: functional; conditions: dose 3 µg/ml
[15] = tested on: Mycolicibacterium smegmatis; experiment: Antibacterial activity against Mycobacterium smegmatis ATCC 14468 assessed as log2 fold change in histidine kinase expression at 3 ug/ml incubated for 12 hrs by mass spectrometric analysis; assay type: functional; conditions: dose 3 µg/ml
[16] = Cytotoxicity against african green monkey Vero cells assessed as cell viability at 3.125 ug/ml by MTT assay; assay type: toxicity, cell-based; conditions: chlorocebus sabaeus, at 3.125 µg/mL, read-out: Activity
[17] = Renal toxicity in Albino mouse assessed as change in proximal convoluted tubules at 50 to 2000 mg/kg, po measured after 14 days; assay type: organism-based; conditions: in vivo, 336 h, dose 50-2000 mg/kg, time 14 day
[18] = Hepatotoxicity in Albino mouse assessed as change in portal tracks at 50 to 2000 mg/kg, po measured after 14 days; assay type: toxicity, organism-based; conditions: in vivo, 336 h, dose 50-2000 mg/kg, time 14 day
[19] = tested on: Mycolicibacterium smegmatis; experiment: Antibacterial activity against Mycobacterium smegmatis ATCC 14468 assessed as log2 fold change in NADH-quinone oxidoreductase subunit C expression at 3 ug/ml incubated for 12 hrs by mass spectrometric analysis; assay type: functional; conditions: dose 3 µg/ml
[20] = tested on: Mycolicibacterium smegmatis; experiment: Antibacterial activity against Mycobacterium smegmatis ATCC 14468 assessed as log2 fold change in (22S)-22-hydroxycampest-4-en-3-one metabolite level by mass spectrometry analysis; assay type: functional
[21] = Acute toxicity in Albino mouse assessed as change in neutrophils at 50 to 2000 mg/kg, po measured after 14 days (reference value: 75%); assay type: organism-based; conditions: in vivo, 336 h, dose 50-2000 mg/kg, time 14 day
[22] = Renal toxicity in Albino mouse assessed as change in distal convoluted tubules at 50 to 2000 mg/kg, po measured after 14 days; assay type: organism-based; conditions: in vivo, 336 h, dose 50-2000 mg/kg, time 14 day
[23] = Acute toxicity in Albino mouse assessed as change in monocytes at 50 to 2000 mg/kg, po measured after 14 days (reference value: 1%); assay type: organism-based; conditions: in vivo, 336 h, dose 50-2000 mg/kg, time 14 day
[24] = Acute toxicity in Albino mouse assessed as change in lymphocytes at 50 to 2000 mg/kg, po measured after 14 days (reference value: 21%); assay type: organism-based; conditions: in vivo, 336 h, dose 50-2000 mg/kg, time 14 day
[25] = Renal toxicity in Albino mouse assessed as change in Bowman's capsule at 50 to 2000 mg/kg, po measured after 14 days; assay type: organism-based; conditions: in vivo, 336 h, dose 50-2000 mg/kg, time 14 day
[26] = tested on: Mycolicibacterium smegmatis; experiment: Antibacterial activity against Mycobacterium smegmatis ATCC 14468 assessed as log2 fold change in cytochrome P450 107B1 expression at 3 ug/ml incubated for 12 hrs by mass spectrometric analysis; assay type: functional; conditions: dose 3 µg/ml
[27] = tested on: Mycolicibacterium smegmatis; experiment: Antibacterial activity against Mycobacterium smegmatis ATCC 14468 assessed as log2 fold change in beta-alanine metabolite level by mass spectrometry analysis; assay type: functional
[28] = tested on: Mycolicibacterium smegmatis; experiment: Antibacterial activity against Mycobacterium smegmatis ATCC 14468 assessed as log2 fold change in membrane transport protein expression at 3 ug/ml incubated for 12 hrs by mass spectrometric analysis; assay type: functional; conditions: dose 3 µg/ml
[29] = tested on: Mycolicibacterium smegmatis; experiment: Antibacterial activity against Mycobacterium smegmatis ATCC 14468 assessed as log2 fold change in MmpL protein expression at 3 ug/ml incubated for 12 hrs by mass spectrometric analysis; assay type: functional; conditions: dose 3 µg/ml
[30] = tested on: Mycolicibacterium smegmatis; experiment: Antibacterial activity against Mycobacterium smegmatis ATCC 14468 assessed as log2 fold change in probable cytochrome c oxidase subunit 3 expression at 3 ug/ml incubated for 12 hrs by mass spectrometric analysis; assay type: functional; conditions: dose 3 µg/ml
[31] = tested on: Mycolicibacterium smegmatis; experiment: Antibacterial activity against Mycobacterium smegmatis ATCC 14468 assessed as log2 fold change in l-Glutamic acid metabolite level by mass spectrometry analysis; assay type: functional
[32] = Pulmonary toxicity in Albino mouse assessed as appearance of goblet cells at 50 to 2000 mg/kg, po measured after 14 days; assay type: organism-based; conditions: in vivo, 336 h, dose 50-2000 mg/kg, time 14 day
[33] = Pulmonary toxicity in Albino mouse assessed as change in alveoli structure at 50 to 2000 mg/kg, po measured after 14 days; assay type: organism-based; conditions: in vivo, 336 h, dose 50-2000 mg/kg, time 14 day
[34] = tested on: Mycolicibacterium smegmatis; experiment: Antibacterial activity against Mycobacterium smegmatis ATCC 14468 assessed as log2 fold change in PknH_C domain-containing protein expression at 3 ug/ml incubated for 12 hrs by mass spectrometric analysis; assay type: functional; conditions: dose 3 µg/ml
[35] = Acute toxicity in Albino mouse assessed as change in SGPT count at 50 to 2000 mg/kg, po measured after 14 days (reference value: 52 IU/L); assay type: organism-based; conditions: in vivo, 336 h, dose 50-2000 mg/kg, time 14 day
[36] = tested on: Mycolicibacterium smegmatis; experiment: Antibacterial activity against Mycobacterium smegmatis ATCC 14468 assessed as log2 fold change in l-tyrosine metabolite level by mass spectrometry analysis; assay type: functional
[37] = Cytotoxicity against african green monkey Vero cells assessed as cell viability at 50 ug/ml by MTT assay; assay type: toxicity, cell-based; conditions: chlorocebus sabaeus, at 50 µg/mL, read-out: Activity
[38] = tested on: Mycolicibacterium smegmatis; experiment: Antibacterial activity against Mycobacterium smegmatis ATCC 14468 assessed as log2 fold change in l-Glutathione oxidized metabolite level by mass spectrometry analysis; assay type: functional
[39] = Hepatotoxicity in Albino mouse assessed as change in central vein at 50 to 2000 mg/kg, po measured after 14 days; assay type: toxicity, organism-based; conditions: in vivo, 336 h, dose 50-2000 mg/kg, time 14 day

Compound | Activity [1] | log2FC [2] | Activity [3] | viability at 12.5 ug/ml [4] [%] | log2FC [5] | Activity [6] | log2FC [7] | viability at 25 ug/ml [8] [%] | Activity [9] | Activity [10] [mg/dL] | Activity [11] | Activity [12] | log2FC [13] | log2FC [14] | log2FC [15] | viability at 3.125 ug/ml [16] [%] | Activity [17] | Activity [18] | log2FC [19] | log2FC [20] | also measured
COc1ccc(C2C(Cl)C(=O)N2C2=C(Cl)C(=O)c3ccccc3C2=O)cc1 (configuration not stated) | inactive | 1.74 | Non-Toxic | 68.1 | -1.34 | Non-Toxic | -6.64 | 37.6 | Non-Toxic | 50 | Non-Toxic | Non-Toxic | 5.6 | -2.45 | -6.64 | 100 | Non-Toxic | Non-Toxic | -1.9 | 2.67 | Activity [21]: 62%; Activity [22]: Non-Toxic; Activity [23]: 1%; Activity [24]: 32%; Activity [25]: Non-Toxic; log2FC [26]: 6.64; log2FC [27]: -2.47; log2FC [28]: -6.64; log2FC [29]: -1.45; log2FC [30]: 2.57; log2FC [31]: -1.49; Activity [32]: Non-Toxic; Activity [33]: Non-Toxic; log2FC [34]: -6.64; Activity [35]: 64 IU/L; log2FC [36]: -1.68; viability at 50 ug/ml [37]: 8.7%; log2FC [38]: -1.04; Activity [39]: Non-Toxic
O=C1C(Cl)=C(Cl)C(=O)c2ccccc21 [Dichlon] | inactive | 2.01 | Non-Toxic | 100 | -0.61 | Non-Toxic | -6.64 | 67.1 | Non-Toxic | 51 | Non-Toxic | Non-Toxic | 5.6 | -4.39 | -6.64 | 100 | Non-Toxic | Non-Toxic | -2.08 | -2.01 | Activity [21]: 43%; Activity [22]: Non-Toxic; Activity [23]: 1%; Activity [24]: 53%; Activity [25]: Non-Toxic; log2FC [26]: 6.64; log2FC [27]: -1; log2FC [28]: -1.79; log2FC [29]: -6.64; log2FC [30]: 2.56; log2FC [31]: -1.59; Activity [32]: Non-Toxic; Activity [33]: Non-Toxic; log2FC [34]: -6.64; Activity [35]: 17 IU/L; log2FC [36]: -1.18; viability at 50 ug/ml [37]: 36.1%; log2FC [38]: -2.01; Activity [39]: Non-Toxic
CN(C)c1ccc(C2C(Cl)C(=O)N2C2=C(Cl)C(=O)c3ccccc3C2=O)cc1 (configuration not stated) | inactive | 0.69 | Non-Toxic | 79.5 | -1.04 | Non-Toxic | -6.64 | 40.9 | Non-Toxic | 48 | Non-Toxic | Non-Toxic | 5.66 | -3.03 | -6.64 | 100 | Non-Toxic | Non-Toxic | -1.41 | 3.41 | Activity [21]: 60%; Activity [22]: Non-Toxic; Activity [23]: 1%; Activity [24]: 34%; Activity [25]: Non-Toxic; log2FC [26]: 6.64; log2FC [27]: -1.29; log2FC [28]: -6.64; log2FC [29]: -6.64; log2FC [30]: 2.37; log2FC [31]: -0.85; Activity [32]: Non-Toxic; Activity [33]: Non-Toxic; log2FC [34]: -6.64; Activity [35]: 73 IU/L; log2FC [36]: -1.13; viability at 50 ug/ml [37]: 25.4%; log2FC [38]: -1.8; Activity [39]: Non-Toxic
